Values quoted from earlier work as cited in publication PMC8583936, “Machine Learning Assisted Approach for Finding Novel High Activity Agonists of Human Ectopic Olfactory Receptors” (International Journal of Molecular Sciences, 2021).
Read-outs that look alike come from different tables or passages of the source.

What was measured:
OR2W1 = molecular target: T1, OR2W1 (Homo sapiens, UniProt Q9Y3N9); details: cited from earlier work
T1 sequence (Q9Y3N9 1-320): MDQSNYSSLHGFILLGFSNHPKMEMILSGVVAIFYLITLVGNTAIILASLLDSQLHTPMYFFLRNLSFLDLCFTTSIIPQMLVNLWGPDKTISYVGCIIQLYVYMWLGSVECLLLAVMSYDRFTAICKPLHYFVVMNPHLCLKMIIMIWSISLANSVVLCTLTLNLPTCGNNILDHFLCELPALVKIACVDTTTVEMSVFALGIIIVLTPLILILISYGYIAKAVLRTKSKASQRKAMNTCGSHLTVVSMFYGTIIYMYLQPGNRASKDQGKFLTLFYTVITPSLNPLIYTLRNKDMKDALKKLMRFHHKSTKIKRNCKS

OR1A1 = molecular target: T2, OR1A1 (Homo sapiens, UniProt Q9P1Q5); details: cited from earlier work
T2 sequence (Q9P1Q5 1-309): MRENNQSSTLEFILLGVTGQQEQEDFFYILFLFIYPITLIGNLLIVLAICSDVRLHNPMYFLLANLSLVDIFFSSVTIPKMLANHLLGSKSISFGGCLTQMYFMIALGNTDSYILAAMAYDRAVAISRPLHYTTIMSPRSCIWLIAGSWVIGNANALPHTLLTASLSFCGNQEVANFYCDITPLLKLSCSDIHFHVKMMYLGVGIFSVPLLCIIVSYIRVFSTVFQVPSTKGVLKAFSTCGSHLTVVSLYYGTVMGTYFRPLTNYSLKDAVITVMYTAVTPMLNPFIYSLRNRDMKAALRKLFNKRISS

[1] = Table S2, ref Supplement references [2]-[12] as printed after each odorant name
[2] = Table S1, ref Supplement references [1]-[9] as printed after each odorant name

SMILES | Class (agonist / non-agonist / antagonist / conflicting info.) for OR2W1 (OR2W1; [1]) | Class (agonist / non-agonist / conflicting info.) for OR1A1 (OR1A1; [2]) | Class (agonist / non-agonist / antagonist / conflicting info.) for OR2W1 (OR2W1) | Class (agonist / non-agonist / conflicting info.) for OR1A1 (OR1A1)
CCCCCCCC1CCCC(=O)O1 (stereo not drawn) [Delta-dodecalactone] | Non-agonist | Non-agonist |  | 
CC(=O)C(C)=O [Diacetyl] | Non-agonist | Non-agonist |  | 
CCCCCC1=C(C)CCC1=O [Dihydrojasmone] | Agonist | Agonist |  | 
CC1(C)CC(=O)CC(=O)C1 [Dimedone] | Non-agonist | Non-agonist |  | 
CSSC [Dimethyl disulfide] |  |  | Non-agonist | Conflicting info.
CSC [Dimethyl sulfide] | Non-agonist | Non-agonist |  | 
CSSSC [Dimethyl trisulfide] | Non-agonist | Non-agonist |  | 
CCCSSSCCC [Dipropyl trisulfide] | Non-agonist | Non-agonist |  | 
CCCCC/C=C/C=C/C=O [E,E-2,4-decadienal] | Non-agonist | Conflicting info. |  | 
CCCC/C=C/C=C/C=O [E,E-2,4-nonadienal] | Non-agonist | Non-agonist |  | 
CC/C=C\CC/C=C/C=O [E,Z-2,6-nonadienal] | Non-agonist | Non-agonist |  | 
C=CCc1ccc(OC)cc1 [Estragole] |  |  | Agonist | Agonist
CCO [Ethanol] | Non-agonist | Non-agonist |  | 
CCOC(=O)C(C)CC (stereo not drawn) [Ethyl 2-methylbutyrate] | Non-agonist | Non-agonist |  | 
CCCC(O)CC(=O)OCC (stereo not drawn) [Ethyl 3-hydroxyhexanoate] | Non-agonist | Non-agonist |  | 
CCOC(=O)CCC(C)C [Ethyl 4-methylvalerate] | Non-agonist | Non-agonist |  | 
CCOC(C)=O [Ethyl acetate] | Non-agonist | Non-agonist |  | 
CCOC(=O)c1ccccc1 [Ethyl benzoate] |  |  | Non-agonist | Non-agonist
CCCC(=O)OCC [Ethyl butyrate] | Non-agonist | Non-agonist |  | 
CCOC(=O)/C=C/c1ccccc1 [Ethyl cinnamate] | Non-agonist | Non-agonist |  | 
CCOC(=O)C1CCCCC1 [Ethyl cyclohexanecarboxylate] | Agonist | Agonist |  | 
CCCCCCCCCC(=O)OCC [Ethyl decanoate] |  |  | Non-agonist | Non-agonist
CCCCCC(=O)OCC [Ethyl hexanoate] | Non-agonist | Agonist |  | 
CCOC(=O)C(C)C [Ethyl isobutyrate] | Non-agonist | Non-agonist |  | 
CCOC(=O)CC(C)C [Ethyl isovalerate] | Non-agonist | Non-agonist |  | 
CCCCCCCC(=O)OCC [Ethyl octanoate] |  |  | Non-agonist | Non-agonist
CCCCC(=O)OCC [Ethyl pentanoate] |  |  | Non-agonist | Non-agonist
